Experimental findings from ChEMBL document CHEMBL1137300, “Identification of the brominated flame retardant 1,2-dibromo-4-(1,2-dibromoethyl)cyclohexane as an androgen agonist” (J Med Chem, 2006) are described below.

Test [1] has as its target T1, Androgen receptor (Rattus norvegicus, UniProt P15207).
T1 sequence (P15207 whole entry): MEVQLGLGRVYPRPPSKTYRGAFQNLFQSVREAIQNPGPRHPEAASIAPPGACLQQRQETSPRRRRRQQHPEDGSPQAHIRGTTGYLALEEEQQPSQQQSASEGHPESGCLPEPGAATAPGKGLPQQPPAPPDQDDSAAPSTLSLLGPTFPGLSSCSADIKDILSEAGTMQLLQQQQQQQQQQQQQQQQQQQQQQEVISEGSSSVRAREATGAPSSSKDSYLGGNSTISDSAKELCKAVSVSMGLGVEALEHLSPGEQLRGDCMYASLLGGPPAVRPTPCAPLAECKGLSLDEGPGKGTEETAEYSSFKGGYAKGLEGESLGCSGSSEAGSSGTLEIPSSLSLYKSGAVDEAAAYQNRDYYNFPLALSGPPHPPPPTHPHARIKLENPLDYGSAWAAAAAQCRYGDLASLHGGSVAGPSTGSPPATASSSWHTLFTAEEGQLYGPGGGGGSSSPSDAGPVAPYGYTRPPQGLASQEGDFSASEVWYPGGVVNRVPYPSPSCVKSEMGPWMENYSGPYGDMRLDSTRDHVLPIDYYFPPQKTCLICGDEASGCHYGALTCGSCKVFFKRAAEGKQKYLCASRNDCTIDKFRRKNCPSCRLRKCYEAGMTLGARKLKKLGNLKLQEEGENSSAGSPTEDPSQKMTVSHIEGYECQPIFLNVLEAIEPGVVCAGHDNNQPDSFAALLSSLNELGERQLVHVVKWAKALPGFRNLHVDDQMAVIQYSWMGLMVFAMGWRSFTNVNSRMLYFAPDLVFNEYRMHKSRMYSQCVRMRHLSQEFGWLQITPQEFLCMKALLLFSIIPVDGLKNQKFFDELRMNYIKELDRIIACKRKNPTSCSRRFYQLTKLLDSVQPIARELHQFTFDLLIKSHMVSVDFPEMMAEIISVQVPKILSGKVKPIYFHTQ
The experiment in a line: Displacement of androgen fluormone from rat androgen receptor.

The target of test [2] is T2, Androgen receptor (Homo sapiens, UniProt P10275).
T2 sequence (P10275 whole entry): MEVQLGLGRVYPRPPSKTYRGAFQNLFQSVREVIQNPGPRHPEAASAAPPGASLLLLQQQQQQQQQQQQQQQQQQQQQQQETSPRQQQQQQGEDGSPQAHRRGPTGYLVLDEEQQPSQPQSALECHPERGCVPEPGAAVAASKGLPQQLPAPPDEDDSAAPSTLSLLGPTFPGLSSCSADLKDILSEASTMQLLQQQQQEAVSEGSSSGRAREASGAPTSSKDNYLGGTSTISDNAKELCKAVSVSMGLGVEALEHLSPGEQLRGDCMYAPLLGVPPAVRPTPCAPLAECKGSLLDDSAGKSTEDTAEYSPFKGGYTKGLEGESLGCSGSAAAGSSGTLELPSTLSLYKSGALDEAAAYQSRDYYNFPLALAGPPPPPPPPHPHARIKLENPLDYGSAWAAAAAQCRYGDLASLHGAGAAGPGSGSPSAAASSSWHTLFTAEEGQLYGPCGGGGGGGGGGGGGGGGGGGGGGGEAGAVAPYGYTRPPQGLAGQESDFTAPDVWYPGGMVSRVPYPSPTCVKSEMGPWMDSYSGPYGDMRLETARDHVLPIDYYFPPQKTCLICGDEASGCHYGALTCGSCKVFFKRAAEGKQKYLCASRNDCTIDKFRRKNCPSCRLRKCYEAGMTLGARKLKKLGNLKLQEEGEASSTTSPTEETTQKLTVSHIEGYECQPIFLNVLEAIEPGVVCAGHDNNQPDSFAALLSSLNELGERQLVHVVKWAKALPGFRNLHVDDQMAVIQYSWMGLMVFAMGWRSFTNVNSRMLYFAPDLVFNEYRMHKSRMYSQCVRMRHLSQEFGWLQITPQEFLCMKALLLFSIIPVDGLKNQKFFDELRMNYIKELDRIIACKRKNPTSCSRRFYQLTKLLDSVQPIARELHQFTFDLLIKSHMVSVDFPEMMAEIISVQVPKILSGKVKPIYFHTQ
The experiment in a line: Activity against human androgen receptor expressed in HepG2 cells assessed as luciferase reporter gene activation. On the technique in general: Reporter assays use an easily measured gene product as a stand-in for the process of interest.

SMILES strings stand for the structures.

The IC50 is the concentration at which inhibition is half-maximal. For the compound `BrCC(Br)C1CCC(Br)C(Br)C1` (configuration not stated), the IC50 at Androgen receptor [1] was 163 nM; on Androgen receptor [2] it was 42.7 nM.
